{"source": "patent USRE48023E1", "about": "“Method for treating vascular-related disease” (EYEGENE INC., priority 2006, dated 2020)", "system": "mouse retinal angiogenesis", "assay": "Mouse model for inducing retinal angiogenesis using oxygen partial pressure, FITC-dextran observation", "type": "in vivo", "conditions": "for blood leakage (FITC-dextran) / normal angiogenesis (FITC-dextran): administered intraperitoneally after 75% oxygen treatment; for abnormal angiogenesis: treated daily with 1 μg/kg"}
{"substance": "SEQ ID NO: 1: peptide comprising a RGD sequence; sequence not printed in text (RGDFV; Peptide Containing RGD Sequence)", "values": [{"measurement": "blood leakage (FITC-dextran)", "result": "blood leakage is reduced"}, {"measurement": "normal angiogenesis (FITC-dextran)", "result": "normal angiogenesis is induced"}, {"measurement": "abnormal angiogenesis", "result": "abnormal angiogenesis was not observed"}]}
{"substance": "SEQ ID NO: 2: peptide comprising a RGD sequence; sequence not printed in text (GFGRGDSPCA; Peptide Containing RGD Sequence)", "values": [{"measurement": "blood leakage (FITC-dextran)", "result": "blood leakage is reduced"}, {"measurement": "normal angiogenesis (FITC-dextran)", "result": "normal angiogenesis is induced"}, {"measurement": "abnormal angiogenesis", "result": "abnormal angiogenesis was not observed"}]}
{"substance": "SEQ ID NO: 3: polypeptide comprising a sequence RAD, used as the control (RADFV; Peptide Containing RAD Sequence) [reference compound]", "values": [{"measurement": "normal angiogenesis (FITC-dextran)", "result": "normal angiogenesis is not induced"}, {"measurement": "normal angiogenesis (FITC-dextran)", "setting": "listed as polypeptide comprising a RAD sequence", "result": "not also normally formed"}]}
{"substance": "echistatin (ECESGPCCRNCKFLKEGTICKRARGDDMDDYCNGLTCDCPRNPHKGPAT; Peptide containing RGD sequence)", "values": [{"measurement": "blood leakage (FITC-dextran)", "result": "blood leakage is reduced"}, {"measurement": "normal angiogenesis (FITC-dextran)", "result": "normal angiogenesis is induced"}, {"measurement": "abnormal angiogenesis", "result": "abnormal angiogenesis was not observed"}]}
{"substance": "kistrin", "values": [{"measurement": "blood leakage (FITC-dextran)", "result": "blood leakage is reduced"}, {"measurement": "normal angiogenesis (FITC-dextran)", "result": "normal angiogenesis is induced"}, {"measurement": "abnormal angiogenesis", "result": "abnormal angiogenesis was not observed"}]}
